Measurements reported in the supplement of paper PMC10307832.

These cell lines were tested with Cn1cnc2c(F)c(Nc3ccc(Br)cc3Cl)c(C(=O)NOCCO)cc21 [Selumetinib] + COc1cc2c(Oc3ccc(NC(=O)C4(C(=O)Nc5ccc(F)cc5)CC4)cc3F)ccnc2cc1OCCCN1CCOCC1 [Foretinib] (partner 0.25 µM) (assay: relative viability (nuclei count vs DMSO), 5 days (fraction); higher = more cells survive). Details: first compound 0.6325 µM.
Outline: (§1)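 Lung cancer cell lines in 1536-well plates got either a single drug or a fixed anchor-drug dose together with five library-drug doses (not always all listed) in √10 steps, by pin tool, on the day after seeding. Nuclei were counted after 5 days, and relative viability is the treated-to-vehicle ratio of nuclei counts. Values are medians of duplicate plates.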

In order of rising relative viability:
1. NCI-H2087  0.304
2. NCI-H1793  0.415
3. NCI-H1915  0.529
4. EKVX  0.568
5. HCC-366  0.645
6. NCI-H441  0.667
7. NCI-H1975  0.724
8. RERF-LC-KJ  0.819
9. NCI-H1650  0.928

The cell lines below were run with Cn1cnc2c(F)c(Nc3ccc(Br)cc3Cl)c(C(=O)NOCCO)cc21 [Selumetinib] + Nc1nc2[nH]cc(CCc3ccc(C(=O)N[C@@H](CCC(=O)O)C(=O)O)cc3)c2c(=O)[nH]1 [Pemetrexed] (partner 0.2 µM) in the same assay as above. Details: first compound 0.02 µM.
Outline: as §1

In order of rising relative viability:
1. NCI-H460  0.0568
2. NCI-H3122  0.181
3. HCC-15  0.194
4. LU99A  0.195
5. HCC-366  0.224
6. NCI-H838  0.234
7. NCI-H2170  0.236
8. HCC-827  0.25
9. ChaGo-K-1  0.258
10. LC-2-ad  0.263
11. NCI-H441  0.283
12. NCI-H1975  0.288
13. NCI-H1437  0.302
14. NCI-H1650  0.304
15. HOP-62  0.31
16. EKVX  0.342
17. 201T  0.358
18. NCI-H2347  0.425
19. RERF-LC-KJ  0.429
20. NCI-H596  0.485
21. NCI-H1915  0.519
22. NCI-H322M  0.546
23. H3255  0.564
24. NCI-H1993  0.614
25. NCI-H520  0.654
26. NCI-H2087  0.677
27. NCI-H2085  0.77
28. NCI-H1793  0.782
29. BEN  0.806
30. HCC-78  0.836
31. NCI-H1395  0.837
32. LXF-289  0.865
33. NCI-H2405  0.999
34. NCI-H1355  1.01
35. A-427  1.11
36. CAL-12T  1.28

Same assay, conditions: first compound 0.06325 µM

In order of rising relative viability:
1. NCI-H460  0.082
2. NCI-H3122  0.171
3. LU99A  0.184
4. HCC-366  0.191
5. NCI-H838  0.214
6. HCC-15  0.221
7. NCI-H441  0.248
8. NCI-H1437  0.253
9. ChaGo-K-1  0.258
10. NCI-H2170  0.266
11. LC-2-ad  0.269
12. HCC-827  0.277
13. NCI-H1975  0.309
14. 201T  0.328
15. NCI-H1650  0.338
16. EKVX  0.361
17. HOP-62  0.382
18. NCI-H2347  0.402
19. NCI-H1915  0.449
20. RERF-LC-KJ  0.459
21. NCI-H322M  0.524
22. NCI-H1993  0.571
23. H3255  0.571
24. NCI-H596  0.576
25. NCI-H1793  0.601
26. NCI-H2087  0.649
27. NCI-H520  0.754
28. BEN  0.765
29. NCI-H2085  0.789
30. NCI-H2405  0.813
31. LXF-289  0.848
32. NCI-H1395  0.868
33. NCI-H1355  0.881
34. HCC-78  0.892
35. A-427  1.05
36. CAL-12T  1.25

Same assay, conditions: first compound 0.2 µM

In order of falling relative viability:
1. CAL-12T  1.1
2. A-427  1.05
3. HCC-78  0.918
4. NCI-H1355  0.898
5. LXF-289  0.763
6. NCI-H520  0.752
7. NCI-H2405  0.75
8. BEN  0.697
9. NCI-H1395  0.694
10. NCI-H2085  0.677
11. NCI-H2087  0.591
12. NCI-H322M  0.564
13. NCI-H1993  0.553
14. H3255  0.552
15. NCI-H1915  0.533
16. RERF-LC-KJ  0.492
17. NCI-H1793  0.435
18. NCI-H596  0.426
19. NCI-H2347  0.399
20. HOP-62  0.348
21. NCI-H1650  0.331
22. 201T  0.323
23. EKVX  0.323
24. NCI-H1975  0.302
25. ChaGo-K-1  0.275
26. NCI-H441  0.275
27. LC-2-ad  0.273
28. HCC-827  0.269
29. NCI-H2170  0.254
30. NCI-H1437  0.246
31. HCC-366  0.234
32. NCI-H838  0.233
33. HCC-15  0.203
34. LU99A  0.184
35. NCI-H3122  0.156
36. NCI-H460  0.0617

Same assay, conditions: first compound 0.6325 µM

In order of falling relative viability:
1. A-427  1.04
2. CAL-12T  0.969
3. NCI-H1395  0.92
4. HCC-78  0.903
5. BEN  0.888
6. LXF-289  0.808
7. NCI-H1355  0.788
8. NCI-H2405  0.736
9. NCI-H520  0.731
10. NCI-H1993  0.651
11. NCI-H2085  0.627
12. NCI-H322M  0.562
13. H3255  0.549
14. NCI-H1793  0.517
15. NCI-H596  0.494
16. RERF-LC-KJ  0.472
17. NCI-H2347  0.392
18. NCI-H1915  0.373
19. NCI-H2087  0.361
20. HOP-62  0.321
21. 201T  0.308
22. NCI-H441  0.308
23. EKVX  0.307
24. NCI-H1650  0.295
25. HCC-827  0.288
26. NCI-H1975  0.283
27. LC-2-ad  0.277
28. NCI-H2170  0.265
29. NCI-H1437  0.259
30. ChaGo-K-1  0.256
31. LU99A  0.245
32. NCI-H838  0.242
33. HCC-15  0.214
34. HCC-366  0.206
35. NCI-H3122  0.169
36. NCI-H460  0.0698
